Measurements: PMC12011184, “Galanin Reduces Myocardial Ischemia/Reperfusion Injury in Rats with Streptozotocin Diabetes” (Acta Naturae, 2025)

Assay: Solubility of peptide G in water
Type: physicochemical
Experimental: Peptide G was obtained by convergent solid-phase synthesis through condensation of peptide segments, which, in turn, were obtained either on a polymer surface or in solution. Peptide G was purified by preparative HPLC to 98% purity on a Knauer chromatograph (Germany) using a Kromasil 100-10 ODS column (Sweden) (30 × 250 mm). Analytical HPLC was performed on a Kromasil 100-5 C18 column (4.6 × 250 mm) with a 5-μm sorbent particle size. The following eluents were used: 0.1% TFA as buffer A and 80% acetonitrile in buffer A as buffer B. The elution was carried out in a linear buffer B gradient ranging from 20 to 80% for 30 min at a rate of 1 ml/min. Detection was performed at λ = 220 nm (Supplementary materials; Fig. S1). The peptide structure was confirmed by MALDI-TOF/TOF mass spectrometry on an UltrafleXtreme Bruker Daltonics GmbH mass spectrometer (Germany) equipped with a UV laser (Nd) (Supplementary materials, Fig. S2).

## CC[C@H](C)[C@H](NC(=O)[C@H](C)NC(=O)[C@H](Cc1c[nH]cn1)NC(=O)[C@@H]1CCCN1C(=O)CNC(=O)[C@H](CC(C)C)NC(=O)[C@H](CC(C)C)NC(=O)[C@H](Cc1ccc(O)cc1)NC(=O)CNC(=O)[C@H](C)NC(=O)[C@H](CO)NC(=O)[C@H](CC(N)=O)NC(=O)[C@H](CC(C)C)NC(=O)[C@@H](NC(=O)[C@H](Cc1c[nH]c2ccccc12)NC(=O)CN)[C@@H](C)O)C(=O)N[C@@H](CC(=O)O)C(=O)N[C@@H](CC(N)=O)C(=O)N[C@@H](Cc1c[nH]cn1)C(=O)N[C@@H](CCCNC(=N)N)C(=O)N[C@@H](CO)C(=O)N[C@@H](Cc1ccccc1)C(=O)N[C@@H](CO)C(=O)N[C@@H](CC(=O)O)C(=O)N[C@@H](CCCCN)C(=O)N[C@@H](Cc1c[nH]cn1)C(=O)NCC(=O)N[C@@H](CC(C)C)C(=O)N[C@H](C(N)=O)[C@@H](C)O [G, galanin]
  solubility: > 40 mg/mL
